In PMC5011342, “A high throughput drug screening assay to identify compounds that promote oligodendrocyte differentiation using acutely dissociated and purified oligodendrocyte precursor cells” (BMC Research Notes, 2016):
Where two headings read alike, the source gives them in different places.

Key:
[1] = system: acutely dissociated and purified rat OPCs; assay: Acute OL differentiation assay (MBP expression/cell, immunofluorescent image quantification); assay type: cell-based; conditions: sheet "All OLga data"
Outline: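 This acute differentiation assay used purified rat OPCs from postnatal day 6–7 pups, seeded into PDL/laminin-coated 96-well plates in differentiation medium lacking PDGF and FGF. Compounds were applied in quadruplicate after a 1–2 h preincubation at 37 °C, 10 % CO2, with 0.1 % DMSO negative and 40 ng/ml T3 positive controls in eight wells. After fixation on DIV4, anti-MBP immunofluorescence images yielded MBP expression/cell.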

[2] = system: expanded OPCs; assay: cells; conditions: for 0.1 µM (% DMSO) / 1 µM (% DMSO) / 10 µM (% DMSO): alamarBlue viability of expanded OPCs; for 0.1 µM (% DMSO): compound at 0.1 µM; for 1 µM (% DMSO): compound at 1 µM; for 10 µM (% DMSO): compound at 10 µM; for viability at 0.1 µM / viability at 1 µM / viability at 10 µM: Rattus norvegicus, 72 h
Outline: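 Toxicity screen: compounds added at 0.1, 1 and 10 µM to PDGF-AA-expanded OPCs in 96-well plates, 3-day incubation at 37 °C, 10% CO2, then alamarBlue 1:10 for 4 h with fluorescence readout. Results set screening doses of 10/2, 2/0.4 or 0.4/0.08 µM.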

[3] = Rattus norvegicus, test compound at 2 uM, NCC library screen, relative to quetiapine, read-out: 2 uM (% Quet)
[4] = Rattus norvegicus, test compound at 10 uM, NCC library screen, relative to quetiapine, read-out: 10 uM (% Quet)
[5] = Rattus norvegicus, 0.4 uM test compound, relative to quetiapine, read-out: OL differentiation, 0.4 uM (% Quet)
[6] = Rattus norvegicus, 2 uM test compound, relative to quetiapine, read-out: OL differentiation, 2 uM (% Quet)
[7] = read-out: 0.1 µM (% DMSO), alamarBlue viability, NCC library compound at 0.1 µM, sheet "All Tox data"
[8] = read-out: 1 µM (% DMSO), alamarBlue viability, NCC library compound at 1 µM, sheet "All Tox data"
[9] = read-out: 10 µM (% DMSO), alamarBlue viability, NCC library compound at 10 µM, sheet "All Tox data"
[10] = Rattus norvegicus, test compound at 0.4 uM, NCC library screen, relative to quetiapine, read-out: 0.4 uM (% Quet)
[11] = Rattus norvegicus, test compound at 2 uM, MBP expression relative to quetiapine, NCC library screen, read-out: 2 uM (% Quet)
[12] = Rattus norvegicus, test compound at 10 uM, MBP expression relative to quetiapine, NCC library screen, read-out: 10 uM (% Quet)
[13] = Rattus norvegicus, 10 uM test compound, relative to quetiapine, read-out: OL differentiation, 10 uM (% Quet)
[14] = read-out: 0.1 µM (% DMSO), alamarBlue viability of expanded OPCs, compound at 0.1 µM, sheet All Tox data
[15] = read-out: 1 µM (% DMSO), alamarBlue viability of expanded OPCs, compound at 1 µM, sheet All Tox data
[16] = read-out: 10 µM (% DMSO), alamarBlue viability of expanded OPCs, compound at 10 µM, sheet All Tox data

SMILES	activation at 2 µM [1, 3] [%]	activation at 10 µM [1, 4] [%]	0.1 µM (% DMSO) ([2]; relative to DMSO control)	1 µM (% DMSO) ([2]; relative to DMSO control)	10 µM (% DMSO) ([2]; relative to DMSO control)	activation at 2 µM [1, 6] [%]	viability at 0.1 µM [2, 7] [%]	viability at 1 µM [2, 8] [%]	viability at 10 µM [2, 9] [%]	other results
CNC(=C[N+](=O)[O-])NCCSCc1ccc(CN(C)C)o1 [Ranitidine]	-29.4	-7.9	109.0	105.8	106.7	–	–	–	–	–
O=C1Nc2ccccc2/C1=C1/Nc2ccccc2C1=O [Indirubin]	–	–	–	–	–	108	97.6	78.2	46.3	activation at 0.4 µM [1, 5]: 26%
CNC1=Nc2ccc(Cl)cc2C(c2ccccc2)=[N+]([O-])C1 [Chlordiazepoxide]	-0.9	23.8	–	–	–	–	91.2	93.8	90.6	–
C[C@H](CCC(=O)O)[C@H]1CC[C@H]2[C@@H]3[C@H](O)C[C@@H]4C[C@H](O)CC[C@]4(C)[C@H]3CC[C@]12C [Chenodeoxycholic Acid]	-24.3	-7.9	111.3	107.5	110.8	–	–	–	–	–
C=C(CC)C(=O)c1ccc(OCC(=O)O)c(Cl)c1Cl [Ethacrynic Acid]	-192	–	90.2	80.6	11.2	–	–	–	–	activation at 0.4 µM [1, 10]: -23.7%
O=C(N[C@H](CO)[C@H](O)c1ccc([N+](=O)[O-])cc1)C(Cl)Cl [Chloramphenicol]	–	–	87.1	93.2	90.9	–	–	–	–	activation at 2 µM [1, 11]: 9.3%; activation at 10 µM [1, 12]: 1.1%
Nc1ccn([C@H]2CC[C@@H](CO)O2)c(=O)n1 [Zalcitabine]	–	–	–	–	–	-5.5	95.4	86.4	79.3	activation at 10 µM [1, 13]: -96.7%
CCCCC/C=C\C/C=C\C/C=C\C/C=C\CCCC(=O)Nc1ccc(O)cc1 [AM 404]	–	–	–	–	–	–	–	–	–	OL differentiation, 0.08 uM (% Quet) ([1]; 0.08 uM test compound, relative to quetiapine): -17.8 % Quet; OL differentiation, 0.4 uM (% Quet) ([1]; 0.4 uM test compound, relative to quetiapine): -184.2 % Quet; 0.1 µM (% DMSO) ([2]; sheet All Tox data): 87.9 % DMSO; 1 µM (% DMSO) ([2]; sheet All Tox data): 33.1 % DMSO; 10 µM (% DMSO) ([2]; sheet All Tox data): 11.4 % DMSO
CCCC(=O)Nc1ccc(OCC(O)CNC(C)C)c(C(C)=O)c1 (centres unmarked) [Acebutolol]	–	–	94.3	111.2	112.7	–	–	–	–	activation at 2 µM [1, 11]: 7.8%; activation at 10 µM [1, 12]: -5.4%
Nc1nc2c(ncn2CCC(CO)CO)c(=O)[nH]1 [Penciclovir]	–	–	–	–	–	-3.5	100	98	90.7	activation at 10 µM [1, 13]: 0.01%
Cc1nnc(SCC2=C(C(=O)O)N3C(=O)[C@@H](NC(=O)Cn4cnnn4)[C@H]3SC2)s1 [Cefazolin]	6.4	0.95	–	–	–	–	95.1	92.5	96.9	–
Nc1nnc(-c2cccc(Cl)c2Cl)c(N)n1 [Lamotrigine]	–	–	–	–	–	-14.6	–	–	–	activation at 10 µM [1, 13]: -8.7%; viability at 0.1 µM [2, 14]: 94.8%; viability at 1 µM [2, 15]: 104%; viability at 10 µM [2, 16]: 99.5%
C=CCN1CC[C@]23c4c5ccc(O)c4O[C@H]2C(=O)CC[C@@]3(O)[C@H]1C5 [Naloxone]	-2.8	-10.8	–	–	–	–	94.2	90.1	85.6	–
CC(C)c1nc(CN(C)C(=O)N[C@H](C(=O)N[C@@H](Cc2ccccc2)C[C@H](O)[C@H](Cc2ccccc2)NC(=O)OCc2cncs2)C(C)C)cs1 [Ritonavir]	–	–	–	–	–	-21.7	–	–	–	activation at 10 µM [1, 13]: -35.8%; viability at 0.1 µM [2, 14]: 96.5%; viability at 1 µM [2, 15]: 97.4%; viability at 10 µM [2, 16]: 69.8%
NC(=O)N1c2ccccc2C=Cc2ccccc21 [Carbamazepine]	–	–	107.0	99.7	103.7	–	–	–	–	activation at 2 µM [1, 11]: -5.2%; activation at 10 µM [1, 12]: -13.7%
CC(=O)OCC[N+](C)(C)C [Acetylcholine]	–	–	87.6	92.6	87.0	–	–	–	–	activation at 2 µM [1, 11]: -4.4%; activation at 10 µM [1, 12]: -7.7%
O=C(CCCN1CCC(O)(c2ccc(Cl)cc2)CC1)c1ccc(F)cc1 [Haloperidol]	4.1	–	–	–	–	–	64	69.1	45.7	activation at 0.4 µM [1, 10]: -22.3%
CO[C@H]1/C=C/O[C@@]2(C)Oc3c(C)c(O)c4c(O)c(c5c(nc6cc(C)ccn65)c4c3C2=O)NC(=O)/C(C)=C\C=C\[C@H](C)[C@H](O)[C@@H](C)[C@@H](O)[C@@H](C)[C@H](OC(C)=O)[C@@H]1C [Rifaximin]	–	–	–	–	–	-77.9	101	69.4	21	activation at 0.4 µM [1, 5]: -15.2%
CC(C)(C)NC[C@H](O)COc1nsnc1N1CCOCC1 [Timolol]	-5.6	-24.3	–	–	–	–	99.5	89.9	92.8	–
COC(=O)Nc1nc2ccc(C(=O)c3ccccc3)cc2[nH]1 [Mebendazole]	–	–	47.2	53.6	45.7	–	–	–	–	activation at 0.08 µM ([1]; Rattus norvegicus, test compound at 0.08 uM, MBP expression relative to quetiapine, NCC library screen, read-out: 0.08 uM (% Quet)): -29.9%; activation at 0.4 µM ([1]; Rattus norvegicus, test compound at 0.4 uM, MBP expression relative to quetiapine, NCC library screen, read-out: 0.4 uM (% Quet)): -139%
CC(=O)S[C@@H]1CC2=CC(=O)CC[C@]2(C)[C@H]2CC[C@@]3(C)[C@@H](CC[C@@]34CCC(=O)O4)[C@H]12 [Spironolactone]	-13	-65.1	88.4	80.5	61.8	–	–	–	–	–
CCCCCCCCCCC[C@@H](C[C@@H]1OC(=O)[C@H]1CCCCCC)OC(=O)[C@H](CC(C)C)NC=O [Orlistat]	–	–	–	–	–	-43.8	–	–	–	activation at 0.4 µM [1, 5]: 4.3%; viability at 0.1 µM [2, 14]: 80.3%; viability at 1 µM [2, 15]: 80.1%; viability at 10 µM [2, 16]: 12.5%
